Some test systems named below: OVCAR-8 ovarian; OVCAR-3 ovarian; SW-620 colon; HCT-116 colon; SN12C renal; MALME-3M melanoma; DU-145 prostate; SNB-75 CNS; ACHN renal; NCI-H460 lung.
Common to all, as to assay: NCI-60 cell line screen, 48 h

Several values for one entry are separate records, joined by “and”; a condition that tells them apart may be missing. Equal values may be shown once.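 Method: 48-hour compound exposure of cells in 96-well plates, five concentrations, linear interpolation of endpoints. The concentration for 50% growth inhibition is given as GI50. TGI is the concentration that stops growth completely.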

Regarding `COc1cccc(/C=C/[N+](=O)[O-])c1`, the GI50 in the test with OVCAR-8 ovarian was 10.7 µM; in the test with OVCAR-3 ovarian it was 1.96 µM; in the test on SW-620 colon, 1.97 µM; with HCT-116 colon, 1.49 µM; in the test with SN12C renal it was 15.2 µM; in the test on MALME-3M melanoma it was 12.1 µM. Also, the GI50 in the test on DU-145 prostate was 2.26 µM; with SNB-75 CNS it was 12.4 µM; in the test with ACHN renal it was 2.49 µM; in the test with NCI-H460 lung, 15.1 µM. The TGI with OVCAR-8 ovarian worked out at 25.1 µM; in the test with OVCAR-3 ovarian, 4.08 µM; in the test with SW-620 colon, 4.27 µM; in the test with HCT-116 colon it was 3.31 µM; with SN12C renal, 37.2 µM; with MALME-3M melanoma, 27.8 µM. Further, the TGI in the test on DU-145 prostate was 5.64 µM; in the test with SNB-75 CNS it was 27.9 µM; in the test with ACHN renal, 6.06 µM; in the test on NCI-H460 lung, 38.8 µM.

Take `O=C(O)c1ccc(Oc2nccc(-c3c(-c4ccc(F)cc4)ncn3C3CCNCC3)n2)cc1`: the GI50 with OVCAR-8 ovarian, in the test on OVCAR-3 ovarian, in the test with SW-620 colon, in the test on HCT-116 colon, with SN12C renal and in the test with MALME-3M melanoma was above 25 µM each time. The GI50 in the test on DU-145 prostate, in the test on SNB-75 CNS, in the test on ACHN renal and with NCI-H460 lung was above 25 µM in each case. Moreover, the TGI in the test with OVCAR-8 ovarian, with OVCAR-3 ovarian, in the test with SW-620 colon, in the test on HCT-116 colon, in the test on SN12C renal and in the test on MALME-3M melanoma was above 25 µM throughout. Moreover, the TGI in the test on DU-145 prostate, in the test on SNB-75 CNS, in the test with ACHN renal and with NCI-H460 lung was above 25 µM in each case.

Take `CNC/C(Cl)=N/S(=O)(=O)c1ccc(C)cc1`: the TGI with OVCAR-8 ovarian is above 100 µM; in the test with OVCAR-3 ovarian, 25.5 µM; in the test with SW-620 colon, above 100 µM; in the test with HCT-116 colon, 21.1 µM; with SN12C renal it was 28.1 µM; in the test on MALME-3M melanoma it was 27.5 µM. Also, the TGI stood at 18.1 µM with DU-145 prostate, 18.4 µM with SNB-75 CNS, 35.8 µM in the test on ACHN renal and 27.2 µM with NCI-H460 lung.

On to `CCOC(=O)NC1C2CC(=O)OC(O2)C1OC(C)=O` (configuration not stated), for which the TGI in the test with OVCAR-8 ovarian, in the test on OVCAR-3 ovarian, in the test with SW-620 colon, in the test with HCT-116 colon, in the test on SN12C renal and with MALME-3M melanoma was above 100 µM each time. Also, the TGI with DU-145 prostate, in the test with SNB-75 CNS, in the test with ACHN renal and in the test on NCI-H460 lung was above 100 µM in each case. For the same compound, the GI50 with DU-145 prostate is above 100 µM.

In the case of `N#CC1=C(N)Oc2c(ccc3ccccc23)C1c1ccccc1` (configuration not stated), the GI50 with OVCAR-8 ovarian was 0.0551 µM; with OVCAR-3 ovarian, 0.0357 µM; with SW-620 colon, 0.0388 µM; in the test on HCT-116 colon, 0.0443 µM; in the test on SN12C renal, 0.0793 µM; in the test on DU-145 prostate it was 0.0468 µM. Moreover, the GI50 in the test with ACHN renal is 0.0681 µM; in the test on NCI-H460 lung, 0.038 µM. The TGI in the test with OVCAR-8 ovarian is 16.8 µM; in the test with OVCAR-3 ovarian, 2.2 µM; with SW-620 colon, 18.6 µM; in the test with HCT-116 colon, 3.73 µM; with SN12C renal, 13.7 µM; in the test on DU-145 prostate it was 12.8 µM. Further, the results for the TGI in the test on ACHN renal and in the test with NCI-H460 lung were 14.8 µM and 10.8 µM, respectively.

With `O=C1NC(=O)C(c2ccccc2Cl)=C1Nc1cc(Cl)c(O)c(Cl)c1`, the GI50 was 17.6 µM in the test with OVCAR-8 ovarian; 9.7 µM with OVCAR-3 ovarian; 9.74 µM in the test with SW-620 colon; 13.6 µM in the test with HCT-116 colon; above 21.5 µM with SN12C renal; 17 µM with MALME-3M melanoma. Also, the GI50 in the test on DU-145 prostate was above 25 µM; in the test with SNB-75 CNS, above 13 µM; with ACHN renal, above 23.7 µM; in the test with NCI-H460 lung, above 25 µM. Further, the TGI was above 25 µM in the test with OVCAR-8 ovarian; 24.9 µM in the test on OVCAR-3 ovarian; above 25 µM in the test with SW-620 colon; above 25 µM in the test on HCT-116 colon; above 25 µM in the test with SN12C renal; above 25 µM in the test with MALME-3M melanoma. For the same compound, the TGI in the test on DU-145 prostate, with SNB-75 CNS, with ACHN renal and with NCI-H460 lung was above 25 µM each time.

Consider `C[C@]12CC[C@H](OC3OC(CO)C(O)C(O)C3O)C[C@H]1CC[C@@H]1[C@@H]2CC[C@]2(C)[C@@H](C3=CCOC3=O)CC[C@]12O` (some centres not stated), for which the GI50 was 42.1 µM and > 100 µM in the test with OVCAR-3 ovarian; above 100 µM with SW-620 colon; > 100 µM and 51.3 µM in the test on HCT-116 colon; above 100 µM in the test with SN12C renal; 23 µM and 16.2 µM in the test on MALME-3M melanoma; 70.6 µM with DU-145 prostate. The GI50 in the test with ACHN renal was 0.183 µM; in the test with NCI-H460 lung it was 0.943 µM and 4.26 µM. Further, the TGI in the test with OVCAR-3 ovarian was 50 µM and > 100 µM; with SW-620 colon it was 50 µM and > 100 µM; in the test on HCT-116 colon, 50 µM and > 100 µM; in the test on SN12C renal, 50 µM and > 100 µM; with MALME-3M melanoma it was 20.4 µM and > 100 µM; in the test with DU-145 prostate, above 100 µM. Besides, the TGI in the test with SNB-75 CNS was 31.6 µM and > 100 µM; in the test on ACHN renal it was above 100 µM; with NCI-H460 lung, 29.4 µM.

Turning to `c1cc(N2CCCN(c3ccc(C4=NCCCN4)cc3)CC2)ccc1C1=NCCCN1`, the GI50 with OVCAR-8 ovarian, with OVCAR-3 ovarian, with SW-620 colon, with HCT-116 colon, in the test with MALME-3M melanoma and with DU-145 prostate was above 100 µM in each case. Also, the results for the GI50 with SNB-75 CNS, with ACHN renal and with NCI-H460 lung were above 100 µM, above 100 µM and 36.7 µM, respectively. For the same compound, the TGI with OVCAR-8 ovarian, in the test on OVCAR-3 ovarian, with SW-620 colon, in the test with HCT-116 colon, in the test on MALME-3M melanoma and in the test on DU-145 prostate was above 100 µM in each case. In addition, the TGI in the test on SNB-75 CNS, in the test on ACHN renal and in the test with NCI-H460 lung was above 100 µM in each case.

(Values after PubChem BioAssay (NCI).)
